Eight compounds from ChEMBL document CHEMBL3593172, “4-(N-Phenyl-N'-substituted benzenesulfonyl)-6-(4-hydroxyphenyl)quinolines as inhibitors of mammalian target of rapamycin” (Bioorg Med Chem, 2015) can be followed below.

A short description of assay [1]: Cytotoxicity against human MIAPaCa2 cells assessed as growth inhibition at 10 uM after 24 to 48 hrs by MTT assay relative to control. The conditions noted are these: MIA PaCa-2, read-out: GI. The class given is functional. (In general: Tetrazolium dyes change colour on reduction, which living cells bring about.)
Assay [2] relates to HepG2. Nature of the assay: cells. The conditions noted are these: Homo sapiens, HepG2, 48 h.
Description: Cytotoxicity against human HepG2 cells assessed as inhibition of cell proliferation after 48 hrs by MTT assay
The nature of another assay: cells. The conditions noted are these: Homo sapiens, MIA PaCa-2, 48 h.
Assay [3] concerns HepG2. Nature of the assay: Cytotoxicity against human HepG2 cells assessed as growth inhibition at 10 uM after 24 to 48 hrs by MTT assay relative to control. The class given is functional. The conditions noted are these: read-out: GI.
For assay [4], the system named is HL-60. Nature of the assay: cells. Particulars: Homo sapiens, HL-60, 48 h.
Description: Cytotoxicity against human HL60 cells assessed as inhibition of cell proliferation after 48 hrs by MTT assay
Assay [5] concerns HCT-116. Briefly: Cytotoxicity against human HCT116 cells assessed as growth inhibition at 10 uM after 24 to 48 hrs by MTT assay relative to control. It is filed as functional. The conditions noted are these: read-out: GI.
Assay [6] concerns PC-3. Briefly: Cytotoxicity against human PC3 cells assessed as growth inhibition at 10 uM after 24 to 48 hrs by MTT assay relative to control. It is filed as functional. Particulars: read-out: GI.
The subject of assay [7] is HepG2. Nature of the assay: Cytotoxicity against human HepG2 cells assessed as growth inhibition at 100 uM after 24 to 48 hrs by MTT assay relative to control. The class given is functional. Particulars: read-out: GI.
The subject of assay [8] is HCT-116. Briefly: Cytotoxicity against human HCT116 cells assessed as growth inhibition at 100 uM after 24 to 48 hrs by MTT assay relative to control. The class given is functional. The conditions noted are these: read-out: GI.
Assay [9] has as its system HL-60. Nature of the assay: Cytotoxicity against human HL60 cells assessed as growth inhibition at 10 uM after 24 to 48 hrs by MTT assay relative to control. Particulars: read-out: GI. The class given is functional.
Assay [10] has as its system HL-60. Briefly: Cytotoxicity against human HL60 cells assessed as growth inhibition at 30 uM after 24 to 48 hrs by MTT assay relative to control. It is filed as functional. The conditions noted are these: read-out: GI.
Assay [11] concerns HCT-116. Briefly: cells. Particulars: Homo sapiens, HCT-116, 48 h.
Description: Cytotoxicity against human HCT116 cells assessed as inhibition of cell proliferation after 48 hrs by MTT assay
Assay [12] in a line: Cytotoxicity against human MIAPaCa2 cells assessed as growth inhibition at 100 uM after 24 to 48 hrs by MTT assay relative to control. It is filed as functional. Particulars: MIA PaCa-2, read-out: GI.
For assay [13], the system named is HCT-116. Nature of the assay: Cytotoxicity against human HCT116 cells assessed as growth inhibition at 30 uM after 24 to 48 hrs by MTT assay relative to control. It is filed as functional. The conditions noted are these: read-out: GI.
Assay [14] in a line: Cytotoxicity against human MIAPaCa2 cells assessed as growth inhibition at 30 uM after 24 to 48 hrs by MTT assay relative to control. The class given is functional. The conditions noted are these: MIA PaCa-2, read-out: GI.
Assay [15] has as its system HepG2. Nature of the assay: Cytotoxicity against human HepG2 cells assessed as growth inhibition at 30 uM after 24 to 48 hrs by MTT assay relative to control. It is filed as functional. The conditions noted are these: read-out: GI.
The test system of assay [16] is PC-3. Nature of the assay: Cytotoxicity against human PC3 cells assessed as growth inhibition at 30 uM after 24 to 48 hrs by MTT assay relative to control. The class given is functional. The conditions noted are these: read-out: GI.
Assay [17] deals with HL-60. Nature of the assay: Cytotoxicity against human HL60 cells assessed as growth inhibition at 100 uM after 24 to 48 hrs by MTT assay relative to control. It is filed as functional. The conditions noted are these: read-out: GI.
Assay [18] has as its system PC-3. Briefly: Cytotoxicity against human PC3 cells assessed as growth inhibition at 100 uM after 24 to 48 hrs by MTT assay relative to control. The class given is functional. The conditions noted are these: read-out: GI.
Assay [19] has as its system PC-3. Briefly: cells. The conditions noted are these: Homo sapiens, PC-3, 48 h.
Description: Cytotoxicity against human PC3 cells assessed as inhibition of cell proliferation after 48 hrs by MTT assay

For the compound `O=[N+]([O-])c1ccc(S(=O)(=O)N(c2ccccc2)c2ccnc3ccc(-c4ccc(O)cc4)cc23)cc1`, the inhibition of growth at 10 µM in assay [1] is 21%; in the assay on HepG2 [3], 8%; with HCT-116 [5], 2%; with PC-3 [6], 4%; with HL-60 [9] it was 86%. Further, the IC50 (as a rule, the concentration that inhibits the measured activity by half) was 22 µM in the assay on HepG2 [2]; 25 µM in the assay “cells”; less than 10 µM with HL-60 [4]; 90 µM in the assay with HCT-116 [11]; greater than 100 µM in the assay with PC-3 [19]. Also, the inhibition of growth at 100 µM in the assay with HepG2 [7] stood at 84%; in the assay on HCT-116 [8], 58%; in assay [12], 81%; in the assay with HL-60 [17], 89%; in the assay on PC-3 [18], 47%. Besides, the inhibition of growth at 30 µM with HL-60 [10] came to 87%; with HCT-116 [13] it was 4%; in [14], 59%; in the assay on HepG2 [15], 76%; in the assay on PC-3 [16], 30%.
Consider `O=S(=O)(c1ccccc1)N(c1ccccc1)c1ccnc2ccc(-c3ccc(O)cc3)cc12`, for which the inhibition of growth at 10 µM in [1] was 80%; in the assay on HepG2 [3], 40%; in the assay with HCT-116 [5], 8%; with PC-3 [6], 15%; with HL-60 [9], 87%. The IC50 was 12 µM with HepG2 [2]; less than 10 µM in the assay “cells”; less than 10 µM in the assay with HL-60 [4]; 28 µM in the assay on HCT-116 [11]; 25 µM in the assay with PC-3 [19]. Besides, the inhibition of growth at 100 µM is 91% in the assay on HepG2 [7]; 89% in the assay with HCT-116 [8]; 87% in [12]; 91% in the assay on HL-60 [17]; 76% with PC-3 [18]. The inhibition of growth at 30 µM turned out to be 89% in the assay with HL-60 [10]; 57% in the assay on HCT-116 [13]; 84% in [14]; 90% in the assay with HepG2 [15]; 61% in the assay on PC-3 [16].
In the case of `N#Cc1ccc(S(=O)(=O)N(c2ccccc2)c2ccnc3ccc(-c4ccc(O)cc4)cc23)cc1`, the inhibition of growth at 10 µM stood at 16% in [1]; 1% in the assay with HepG2 [3]; 5% with HCT-116 [5]; 9% in the assay with PC-3 [6]; 12% in the assay with HL-60 [9]. Further, the IC50 in the assay on HepG2 [2] is greater than 100 µM; in “cells”, 78 µM; with HL-60 [4], 58 µM; in the assay with HCT-116 [11] it was greater than 100 µM; with PC-3 [19], greater than 100 µM. The inhibition of growth at 100 µM in the assay with HepG2 [7] amounted to 34%; with HCT-116 [8] it was 36%; in assay [12], 64%; in the assay with HL-60 [17] it was 78%; in the assay on PC-3 [18] it was 19%. The inhibition of growth at 30 µM is 30% in the assay on HL-60 [10]; 21% in the assay with HCT-116 [13]; 21% in assay [14]; 1% in the assay with HepG2 [15]; 10% in the assay with PC-3 [16].
For the compound `Oc1ccc(-c2ccc3nccc(Nc4ccccc4)c3c2)cc1`, the inhibition of growth at 10 µM in assay [1] stood at 28%; in the assay on HepG2 [3], 8%; with HCT-116 [5], 8%; with PC-3 [6], 27%; with HL-60 [9], 41%. The IC50 was determined as 18 µM in the assay with HepG2 [2]; 18 µM in the assay “cells”; 14 µM in the assay with HL-60 [4]; 27 µM in the assay on HCT-116 [11]; 21 µM in the assay with PC-3 [19]. Further, the inhibition of growth at 100 µM with HepG2 [7] amounted to 86%; in the assay with HCT-116 [8], 86%; in [12] it was 93%; with HL-60 [17], 82%; with PC-3 [18] it was 90%. For the same compound, the inhibition of growth at 30 µM amounted to 65% with HL-60 [10]; 53% in the assay with HCT-116 [13]; 91% in [14]; 53% in the assay with HepG2 [15]; 74% in the assay with PC-3 [16].
In the case of `Cc1ccc(S(=O)(=O)N(c2ccccc2)c2ccnc3ccc(-c4ccc(O)cc4)cc23)cc1`, the inhibition of growth at 10 µM in assay [1] was determined as 80%; with HepG2 [3], 13%; in the assay on HCT-116 [5] it was 21%; in the assay on PC-3 [6], 20%; in the assay with HL-60 [9], 78%. Further, the IC50 was 19 µM in the assay with HepG2 [2]; less than 10 µM in “cells”; less than 10 µM in the assay with HL-60 [4]; 53 µM in the assay on HCT-116 [11]; 45 µM with PC-3 [19]. For the same compound, the inhibition of growth at 100 µM stood at 97% in the assay on HepG2 [7]; 82% in the assay on HCT-116 [8]; 89% in [12]; 92% with HL-60 [17]; 72% in the assay with PC-3 [18]. For the same compound, the inhibition of growth at 30 µM in the assay with HL-60 [10] worked out at 90%; with HCT-116 [13], 34%; in assay [14], 88%; in the assay on HepG2 [15], 90%; with PC-3 [16], 43%.
Turning to `CC(C)(C)c1ccc(S(=O)(=O)N(c2ccccc2)c2ccnc3ccc(-c4ccc(O)cc4)cc23)cc1`, the inhibition of growth at 10 µM in assay [1] is 79%; with HepG2 [3], 14%; in the assay on HCT-116 [5], 20%; with PC-3 [6] it was 21%; with HL-60 [9], 76%. The IC50 in the assay with HepG2 [2] was 18 µM; in “cells”, less than 10 µM; with HL-60 [4], less than 10 µM; with HCT-116 [11], 31 µM; with PC-3 [19] it was 44 µM. For the same compound, the inhibition of growth at 100 µM in the assay with HepG2 [7] was determined as 98%; in the assay on HCT-116 [8], 83%; in assay [12], 90%; with HL-60 [17] it was 93%; in the assay on PC-3 [18], 70%. Moreover, the inhibition of growth at 30 µM in the assay with HL-60 [10] was found to be 89%; in the assay on HCT-116 [13] it was 35%; in assay [14] it was 85%; with HepG2 [15] it was 89%; in the assay with PC-3 [16], 45%.
As for `COc1ccc(S(=O)(=O)N(c2ccccc2)c2ccnc3ccc(-c4ccc(O)cc4)cc23)cc1`, the inhibition of growth at 10 µM stood at 63% in assay [1]; 20% in the assay on HepG2 [3]; 10% in the assay with HCT-116 [5]; 15% in the assay with PC-3 [6]; 63% with HL-60 [9]. Further, the IC50 is 20 µM in the assay on HepG2 [2]; less than 10 µM in the assay “cells”; less than 10 µM in the assay with HL-60 [4]; 50 µM with HCT-116 [11]; 65 µM with PC-3 [19]. The inhibition of growth at 100 µM in the assay on HepG2 [7] turned out to be 86%; in the assay on HCT-116 [8] it was 79%; in [12], 86%; in the assay with HL-60 [17] it was 89%; in the assay on PC-3 [18], 61%. Besides, the inhibition of growth at 30 µM with HL-60 [10] turned out to be 87%; in the assay on HCT-116 [13], 39%; in assay [14], 81%; in the assay with HepG2 [15], 78%; in the assay with PC-3 [16], 39%.
As for `O=S(=O)(c1ccc(F)cc1)N(c1ccccc1)c1ccnc2ccc(-c3ccc(O)cc3)cc12`, the inhibition of growth at 10 µM in assay [1] stood at 9%; in the assay on HepG2 [3] it was 1%; in the assay on HCT-116 [5] it was 20%; with PC-3 [6] it was 16%; in the assay with HL-60 [9], 2%. In addition, the half-inhibitory concentration (IC50) in the assay with HepG2 [2] came out at 85 µM; in the assay “cells”, 65 µM; in the assay with HL-60 [4], 28 µM; in the assay on HCT-116 [11], 27 µM; in the assay on PC-3 [19], 42 µM. Also, the inhibition of growth at 100 µM in the assay on HepG2 [7] worked out at 60%; in the assay on HCT-116 [8], 92%; in [12], 70%; in the assay on HL-60 [17], 79%; in the assay on PC-3 [18] it was 87%. Further, the inhibition of growth at 30 µM turned out to be 51% in the assay with HL-60 [10]; 57% in the assay on HCT-116 [13]; 30% in [14]; 10% with HepG2 [15]; 43% in the assay with PC-3 [16].
